Results published in PMC6643344, “Studying the Possibilities of Using 2-Halogen-Substituted Acetamides As Acyl Donors in Penicillin Acylase-Catalyzed Reactions” (Acta Naturae, 2019).

Target: T1, penicillin acylase from Escherichia coli (Escherichia coli, UniProt P06875)
T1 construct: gene pac; free enzyme in solution; mature alpha/beta heterodimer cut from one precursor (known biology)
Experiment: first-order inactivation, residual activity with NIPAB at […] nm
Format: biochemical
Conditions: inactivation rate constant (given as kin x 10^4) at 0.1 M compound; 0.1 M potassium phosphate pH 7.5; 25°C; active site, turnover-linked; also a substrate

T1 sequence (P06875 27-235, looked up): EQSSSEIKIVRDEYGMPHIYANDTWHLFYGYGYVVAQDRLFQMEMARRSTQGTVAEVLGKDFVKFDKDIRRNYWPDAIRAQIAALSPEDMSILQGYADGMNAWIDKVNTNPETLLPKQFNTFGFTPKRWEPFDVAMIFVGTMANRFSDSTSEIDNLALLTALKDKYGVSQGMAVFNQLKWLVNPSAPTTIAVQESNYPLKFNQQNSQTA
T1 sequence (P06875 290-846, looked up): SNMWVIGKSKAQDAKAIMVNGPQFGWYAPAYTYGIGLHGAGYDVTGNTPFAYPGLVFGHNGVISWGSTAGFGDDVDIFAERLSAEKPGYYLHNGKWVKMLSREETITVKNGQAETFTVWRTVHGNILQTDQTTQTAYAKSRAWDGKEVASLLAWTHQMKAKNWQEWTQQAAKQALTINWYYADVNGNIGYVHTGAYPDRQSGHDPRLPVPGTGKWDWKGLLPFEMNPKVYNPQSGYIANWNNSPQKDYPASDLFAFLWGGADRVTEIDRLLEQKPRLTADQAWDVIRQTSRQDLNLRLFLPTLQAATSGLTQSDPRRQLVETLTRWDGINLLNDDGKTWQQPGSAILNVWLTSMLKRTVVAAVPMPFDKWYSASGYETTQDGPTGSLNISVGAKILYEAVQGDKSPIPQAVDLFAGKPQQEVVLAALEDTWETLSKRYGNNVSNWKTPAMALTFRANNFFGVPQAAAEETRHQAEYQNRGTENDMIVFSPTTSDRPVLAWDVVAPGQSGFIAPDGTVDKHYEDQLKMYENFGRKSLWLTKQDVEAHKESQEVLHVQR

Row | Compound | kin.10^4, min^-1
1 | NC(=O)CCl [2-chloroacetamide] | 1.1 ± 0.1 min^-1
2 | NC(=O)CI [2-iodoacetamide] | 364 ± 34 min^-1
3 | NC(=O)CBr [2-bromoacetamide] | 47 ± 2 min^-1
